From patent US8808879B2, “Phototherapy devices and methods comprising substituted carbazole compounds” (Nitto Denko Corporation, priority 2010, dated 2014)

Legend:
actinic keratoses = assay: Photodynamic treatment of actinic keratoses lesions with topical photosensitiser pro-drug and red OLED; conditions: 20% topical solution, illuminated with red OLED about 14-18 hours after application
[1] = test system: age-related macular degeneration; assay: Verteporphin photodynamic therapy of age-related macular degeneration with red OLED; format: in vivo, person; conditions: about 6 mg/m^2 intravenously, retina illuminated with red OLED about 15 minutes after start of infusion
pathological myopia = assay: Verteporphin photodynamic therapy of pathological myopia with red OLED; format: in vivo, person; conditions: about 6 mg/m^2 intravenously, retina illuminated with red OLED about 15 minutes after start of infusion
[2] = test system: presumed ocular histoplasmosis; parameters: species or system person; conditions: in vivo, iv
[3] = test system: CHO-K1 (Chinese Hamster Ovarian Cancer, ATCC, CRL-2243) cell line; assay: Ex-vivo photodynamic efficacy study of ALA with red OLED light (microscopy, PpIX fluorescence, MTT cell viability)

Compound: Cl.NCC(=O)CCC(=O)O [5-Aminolevulinic acid HCl]
- number or severity of the lesions after the treatment (actinic keratoses): reduced

Compound: C=Cc1c(C)c2cc3nc(cc4[nH]c(cc5nc(cc1[nH]2)C(C)=C5CCC(=O)O)c(CCC(=O)OC)c4C)[C@@]1(C)C3=CC=C(C(=O)OC)[C@H]1C(=O)OC [Verteporphin]
- patient's vision after treatment [1]: stabilized
- patient's vision after treatment (pathological myopia): stabilized
- patient's vision after treatment [2]: stabilized

Compound: NCC(=O)CCC(=O)O [ALA, 5-aminolevulinic acid]
- cytotoxicity at 1000 µM ([3]; Cricetulus griseus, CHO-K1, light or radiation study, read-out: cell destroyed compared with reference (MTT cell viability)): ~90%
- cell morphology under optical microscope after light irradiation ([3]; after 25 J/cm^2 red light irradiation, leafy type cells transform to droplet type (FIG. 9)): significant and irreversible cell death
- concentration of ALA required ([3]; at the light dose of 27 J/cm^2): at least 1 mM
